Reference: patent US6613758B1, “Method for treating osteoporosis in castrated prostatic cancer patients” (Barr Laboratories, Inc., priority 1999, dated 2003)

Assays:
[1] = tested on: human breast cancer ZR-75-1 cells; conditions: low concentrations, in vitro; cited from earlier work
[2] = men; cited from earlier work
[3] = pharmacokinetics of CPA in humans, plasma concentration; assay type: in vivo, human; conditions: longer period of continual dosing of 50 mg per day
Source text: The Androcur® Monograph, Berlex, Canada (1997) reports on the pharmacokinetics of CPA in humans. […] Blood levels of CPA are known to be generally dose dependent.

[4] = 367 evaluable patients; criteria weight gain and pain relief; cited from earlier work
[5] = orchiectomized patients, 6 months, 150 mg/day CPA (50 mg t.i.d.); cited from earlier work
[6] = male subjects, oral, one 50 mg dose; cited from earlier work
[7] = cited from earlier work
[8] = castrated adult rats; cited from earlier work
[9] = 17 patients, goserelin alone; cited from earlier work

C[C@]12CC[C@H]3[C@@H](CCC4=CC(=O)CC[C@@H]43)[C@@H]1CC[C@@H]2O [nor-testosterone]
androgenic activity [1]: possess androgenic activity

C#C[C@]1(O)CC[C@H]2[C@@H]3CCC4=CC(=O)CC[C@]4(C)[C@H]3CC[C@@]21C [ethisterone]
androgenic activity [1]: possess androgenic activity

CC(=O)O[C@]1(C(C)=O)CC[C@H]2[C@@H]3C=C(Cl)C4=CC(=O)[C@@H]5C[C@@H]5[C@]4(C)[C@H]3CC[C@@]21C [CPA, Cyproterone acetate]
threshold value for an antiandrogen effect [2]: 50 mg | cumulative plasma level, steady state [3]: ≥ 750 nmol/L | patients with general improvement in subjective assessment of quality of life [4]: 70% | number of patients experiencing hot flashes or outbreaks of sweating [5]: decreased | mean plasma concentration [6]: about 700 nmol/L | androgenic activity [1]: possess androgenic activity | discontinuation due to side effects ([7]; 89 orchiectomized patients, 50 mg/day CPA, 2 to 152 months): in no case | cases of hepatocellular carcinoma ([7]; over 2500 patients, long term CPA use): Not a single case | inhibition of complete involution of the ventral prostate [8]: very weak

CC(C)C[C@H](NC(=O)[C@@H](COC(C)(C)C)NC(=O)[C@H](Cc1ccc(O)cc1)NC(=O)[C@H](CO)NC(=O)[C@H](Cc1c[nH]c2ccccc12)NC(=O)[C@H](Cc1cnc[nH]1)NC(=O)[C@@H]1CCC(=O)N1)C(=O)N[C@@H](CCCNC(=N)N)C(=O)N1CCC[C@H]1C(=O)NNC(N)=O [goserelin]
patients with transient increase in bone pain [9]: 58.5%
